“Also recorded” adds a separate entry of the source.
Tested on: hyperthyroidism patients
Assay: Typical cases of clinical treatment (case reports)
Type: in vivo, human
Details: propylthiouracil and methimazole taken successively
Description: The present example includes following typical cases of clinical treatment.

| SMILES | adverse reaction that led to discontinuing oral treatment (patient history) |
| --- | --- |
| CCCc1cc(=O)[nH]c(=S)[nH]1 [propylthiouracil] | severe drug-induced liver damage; also recorded: severe neutropenia; also recorded: acute urticaria |
| Cn1cc[nH]c1=S [methimazole] | severe drug-induced liver damage; also recorded: severe neutropenia; also recorded: acute urticaria |
